≈ marks a conversion by molar mass, not a printed value.
How the values were obtained:
Type in all cases: cell-based
[1] = tested on: Staphylococcus aureus (IFO13276 ATCC6538); assay: Antimicrobial activity, agar medium dilution method (MIC / growth observation); parameters: key to Antibacterial Effect with Specimen Concentration: A: antibacterially effective; B: bacteriostatically active; C: some growth inhibiting effective; D: non effective
Method: (§1) Antimicrobial activity was assayed using the method described below. Paraben was used as a positive control. Staphylococcus aureus (IFO13276 ATCC6538), Candida albicans (IFO1594 ATCC10231), Aspergillus niger (IFO9455 ATCC16401), Pseudomonas aeruginosa (IFO013275 ATCC9027), Escherichia coli (IFO3972 ATCC8739) Antibacterial effect was evaluated by using either qualitative observation of the growing strains in the presence of each specimen or measuring the minimum inhibitory concentration (MIC) of the strains. An agar medium dilution method was adopted for the evaluation using Mueller-Hinton agar media (Eiken Chemical Co., Ltd.). The experiment was performed using the MIC test method following the standards of the Japanese Society of Chemotherapy. More specifically, each specimen was measured, when dissolved in 50/50 ethanol/water mixture and used to prepare 1 mL of each test specimen. 9 mL of measuring medium was added to the test specimens to create an agar plate. […] of the experimental bacterial liquid (live bacteria: 10^6-10^8/mL) was added to the agar plate. The growth and development of the bacteria was judged and recorded after it was cultured for 24 hours at 37° C. The minimum concentration that inhibited bacterial growth was regarded as MIC. The evaluation results of Example 1 are shown in Table 1 (MIC Rate) and Table 2 (Antibacterial Effect with Specimen Concentration). The MIC rates in Table 1 are given in μg/ml. […] The meaning of the symbols used in Table 2 is as follows: A: antibacterially effective, B: bacteriostatically active, C: some growth inhibiting effective, D: non effective.

[2] = tested on: Candida albicans (IFO1594 ATCC10231); assay: as above; parameters: key to Antibacterial Effect with Specimen Concentration: A: antibacterially effective; B: bacteriostatically active; C: some growth inhibiting effective; D: non effective
Method: as §1

[3] = tested on: Aspergillus niger (IFO9455 ATCC16401); assay: as above; parameters: key to Antibacterial Effect with Specimen Concentration: A: antibacterially effective; B: bacteriostatically active; C: some growth inhibiting effective; D: non effective
Method: as §1

[4] = tested on: Pseudomonas aeruginosa (IFO013275 ATCC9027); assay: Antimicrobial activity, agar medium dilution method (MIC); conditions: Mueller-Hinton agar, 24 hours at 37° C.
Method: (§2) Antimicrobial activity was assayed using the method described below. Paraben was used as a positive control. Staphylococcus aureus (IFO13276 ATCC6538), Candida albicans (IFO1594 ATCC10231), Aspergillus niger (IFO9455 ATCC16401), Pseudomonas aeruginosa (IFO013275 ATCC9027), Escherichia coli (IFO3972 ATCC8739) Antibacterial effect was evaluated by using either qualitative observation of the growing strains in the presence of each specimen or measuring the minimum inhibitory concentration (MIC) of the strains. An agar medium dilution method was adopted for the evaluation using Mueller-Hinton agar media (Eiken Chemical Co., Ltd.). The experiment was performed using the MIC test method following the standards of the Japanese Society of Chemotherapy. More specifically, each specimen was measured, when dissolved in 50/50 ethanol/water mixture and used to prepare 1 mL of each test specimen. 9 mL of measuring medium was added to the test specimens to create an agar plate. […] of the experimental bacterial liquid (live bacteria: 10^6-10^8/mL) was added to the agar plate. The growth and development of the bacteria was judged and recorded after it was cultured for 24 hours at 37° C. The minimum concentration that inhibited bacterial growth was regarded as MIC. The evaluation results of Example 1 are shown in Table 1 (MIC Rate) and Table 2 (Antibacterial Effect with Specimen Concentration). […]

[5] = tested on: Escherichia coli (IFO3972 ATCC8739); assay: as above; conditions: Mueller-Hinton agar, 24 hours at 37° C.
Method: as §2

[6] = specimen concentration 50 μg/ml
[7] = specimen concentration 500 μg/ml
[8] = Mueller-Hinton agar, 24 hours at 37° C.

SMILES | Antibacterial Effect with Specimen Concentration [1, 6] | Antibacterial Effect with Specimen Concentration [1, 7] | Antibacterial Effect with Specimen Concentration [2, 6] | Antibacterial Effect with Specimen Concentration [2, 7] | Antibacterial Effect with Specimen Concentration [3, 6] | Antibacterial Effect with Specimen Concentration [3, 7] | MIC [4] [µg/mL] | MIC [5] [µg/mL] | MIC [1, 8] [µg/mL] | MIC [2, 8] [µg/mL] | MIC [3, 8] [µg/mL]
COc1ccc(C2COc3cc(O)ccc3C2)c(OC)c1O (single isomer, unassigned) [Mucronulatol, mucronulatol] | A | A | C | A | C | A | – | – | – | – | –
O=C(O)c1ccc(O)cc1 [Paraben, reference compound] | – | – | – | – | – | – | 1000 (≈ 7.24 mM) | 800 (≈ 5.79 mM) | 800 (≈ 5.79 mM) | 500 (≈ 3.62 mM) | 300 (≈ 2.17 mM)
COc1cc(O)c(OC)c(OC)c1C1COc2cc(O)ccc2C1 (centres unmarked) | D | C | C | C | C | A | – | – | – | – | –
COC1=C(OC)C(=O)C(C2COc3c(ccc(O)c3OC)C2)=CC1=O (single isomer, unassigned) [Amorphaquinone, amorphaquinone] | A | A | B | A | C | A | – | – | – | – | –
COC1=C(OC)C(=O)C(C2COc3cc(O)ccc3C2)=CC1=O (centres unmarked) [Pendulone, pendulone] | A | A | C | A | C | A | – | – | – | – | –

— patent US20090263509A1, “ANTIBACTERIAL AGENT AND ANTIBACTERIAL COMPOSITION” (SAKAMOTO BIO CO., LTD, priority 2004, published 2009)
